US20250066370A1, “BICYCLIC TRIAZINE DERIVATIVES FOR THE TREATMENT OF CANCER” (DEUTSCHES KREBSFORSCHUNGSZENTRUM, priority 2022, published 2025)

Experiments:
CDK2/CyclinE = CDK2/CyclinE (Homo sapiens (Human), UniProt P24941); test: CDK2/CycE kinase assay (TR-FRET); assay type: biochemical; settings: 2 mM ATP (high ATP); median; read-out: CDK2/CyclinE, 2 mM ATP (high ATP), IC50 - [mol/l] (median)
Text: CDK2/CycE-inhibitory activity of compounds of the present invention was quantified employing the CDK2/CycE TR-FRET assay as described in the following paragraphs.
Recombinant fusion proteins of GST and human CDK2 and of GST and human CycE, expressed in insect cells (Sf9) and purified by Glutathion-Sepharose affinity chromatography, were purchased from ProQinase GmbH (Freiburg, Germany). As substrate for the kinase reaction biotinylated peptide biotin-Ttds-YISPLKSPYKISEG (C-terminus in amid form) was used which can be purchased e.g. form the company JERINI peptide technologies (Berlin, Germany).
For the assay 50 nanoL of a 100 fold concentrated solution of the test compound in DMSO was pipetted into a black low volume 384 well microtiter plate or a black 1536 well microtiter plate (both Greiner Bio-One, Frickenhausen, Germany), 2 microL of a solution of CDK2/CycE in aqueous assay buffer [50 millimol/L Tris/HCl PH 8.0, 10 millimol/L MgCl2, 1.0 millimol/L dithiothreitol, 0.1 millimol/L sodium ortho-vanadate, 0.01% (v/v) Nonidet-P40 (Sigma)] were added and the mixture was incubated for 15 min at 22° C. to allow pre-binding of the test compounds to the enzyme before the start of the kinase reaction. Then the kinase reaction was started by the addition of 3 microL of a solution of adenosine-tri-phosphate (ATP, 3.33 millimol/L=>final conc. in the 5 microL assay volume is 2 millimol/L) and substrate (1.25 micromol/L=>final conc. in the 5 microL assay volume is 0.75 micromol/L) in assay buffer and the resulting mixture was incubated for a reaction time of 25 min at 22° C. The concentration of CDK2/CycE was adjusted depending of the activity of the enzyme lot and was chosen appropriate to have the assay in the linear range, typical concentrations were in the range of 10 ng/ml. The reaction was stopped by the addition of 3 microL of a solution of TR-FRET detection reagents (0.333 micromol/L streptavidine-XL665 [Cisbio Bioassays, Codolet, France] and 1.67 nanomol/L anti-RB (pSer807/pSer811)-antibody from BD Pharmingen [#558389] and 2 nanomol/L LANCE EU-W1024 labeled anti-mouse IgG antibody [Perkin-Elmer, product no. AD0077, as an alternative a Terbium-cryptate-labeled anti-mouse IgG antibody from Cisbio Bioassays can be used]) in an aqueous EDTA-solution (167 millimol/L EDTA, 0.2% (w/v) bovine serum albumin in 100 millimol/L HEPES pH 7.5).
The resulting mixture was incubated 1 h at 22° C. to allow the formation of complex between the phosphorylated biotinylated peptide and the detection reagents. Subsequently the amount of phosphorylated substrate was evaluated by measurement of the resonance energy transfer from the Eu-chelate to the streptavidine-XL. Therefore, the fluorescence emissions at 620 nm and 665 nm after excitation at 350 nm was measured in a TR-FRET reader, e.g. a Pherastar (BMG Labtechnologies, Offenburg, Germany) or a Viewlux (Perkin-Elmer). The ratio of the emissions at 665 nm and at […] was taken as the measure for the amount of phosphorylated substrate. The data were normalised (enzyme reaction without inhibitor=0% inhibition, all other assay components but no enzyme=100% inhibition).

[1] = tested on: CAL-120, human breast adenocarcinoma cells; test: Proliferation assay CAL-120 (crystal violet); assay type: cell-based; settings: 96 h, CAL-120 parental cells, 4 days, median, read-out: Prolif-CAL-120, IC50 - [mol/l] (median)
Method: Human tumour cells were originally obtained from the American Type Culture Collection (ATCC), or from the Deutsche Sammlung von Mikroorganismen und Zellkulturen (DSMZ, German Collection of Microorganisms and Cell Cultures). Cultivated tumour cells (CAL-120, human breast adenocarcinoma cells, DSMZ ACC-459; MDA-MB-231, human breast cancer cells, ATCC HTB-26) were plated at a density of 4,000 cells/well in a 96-well multitier plate in 200 microL of their respective growth medium supplemented 10% fetal calf serum. After 24 hours, the cells of one plate (zero-point plate) were stained with crystal violet (see below), while the medium of the other plates was supplemented with the test substances in various concentrations (0 micromol/L, as well as in the range of 0.01-10 micromol/L; the final concentration of the solvent dimethyl sulfoxide was adjusted to 0.1%) using a Tecan HP D300 Digital Dispenser. The cells were incubated for 4 days in the presence of test substances. Cell proliferation was determined by staining the cells with crystal violet: the cells were fixed by adding 20 microL/measuring point of an 11% glutaric aldehyde solution for 15 minutes at room temperature. After three washing cycles of the fixed cells with water, the plates were dried at room temperature. The cells were stained by adding 100 microL/measuring point of a 0.1% crystal violet solution (pH 3.0). After three washing cycles of the stained cells with water, the plates were dried at room temperature. The dye was dissolved by adding 100 microL/measuring point of a 10% acetic acid solution. The extinction was determined by photometry at a wavelength of 595 nm. The change of cell number, in percent, was calculated by normalization of the measured values to the extinction values of the zero-point plate (=0%) and the extinction of the untreated (0 μM) cells (=100%). The IC50 values (inhibitory concentration at 50% of maximal effect) were determined by means of a 4 parameter fit.

Compound	IC50 (CDK2/CyclinE)	IC50 [1]
FC(F)(F)Oc1ccc(-c2nnc(CNc3nc(N4CCOCC4)nc4c(Br)cnn34)[nH]2)cc1 [Example 2, 8-bromo-2-(morpholin-4-yl)-N-({5-[4-(trifluoromethoxy)phenyl]-4H-1,2,4-triazol-3-yl}methyl)pyrazolo[1,5-a][1,3,5]triazin-4-amine]	11.2 µM	0.37 µM
Cc1ccc(-c2nnc(CNc3nc(N4CCOCC4)nc4c(C(F)(F)F)cnn34)[nH]2)cn1 [Example 22, N-{[5-(6-methylpyridin-3-yl)-4H-1,2,4-triazol-3-yl]methyl}-2-(morpholin-4-yl)-8-(trifluoromethyl)pyrazolo[1,5-a][1,3,5]triazin-4-amine]	3.12 µM	0.333 µM
FC(F)(F)c1ccc(-c2cnc(CNc3nc(N4CCOCC4)nc4c(C(F)(F)F)cnn34)[nH]2)cc1 [Example 9, 2-(morpholin-4-yl)-8-(trifluoromethyl)-N-({5-[4-(trifluoromethyl)phenyl]-1H-imidazol-2-yl}methyl)pyrazolo[1,5-a][1,3,5]triazin-4-amine]	> 20 µM	0.109 µM
